Measured values taken from patent US10278971B2, “Fluorocyclopentenylcytosine methods of use” (Rexahn Pharmaceuticals, Inc., priority 2015, dated 2019).

Columns and labels:
[1] = test system: A2780 ovarian cancer cells and NSCLC cell lines; assay: Radiosensitizing effect, summary over cell lines; format: cell-based, human; settings: preincubation, pulse and fractionated irradiation
Method: Exponential growing A2780, SW1573, A549, H460 and SW1573/G-cells were exposed to 1 μM RX-3117 or untreated (control) for 24 h and irradiated with single doses γ-radiation (0-6 Gy) using a ^60Co source (Gammacell 200, Atomic Energy of Canada, Ltd). Subsequently, 500 cells/T25 flasks were plated and allowed to form colonies. After ten days colonies were fixed with 100% ethanol and stained with 10% Giemsa stain solution (Merck Chemicals BV, Amsterdam, the Netherlands) for colonies counting. Plating efficiency (PE) was calculated by dividing the number of colonies formed through the number of cells plated and normalized for cytotoxicity induced by control. To illustrate the effect of RX-3117 on radiation, dose modifying factor (DMF) was calculated as described earlier (Bijnsdorp I V, van den Berg J, Kuipers G K, Wedekind L E, Slotman B J, van Rijn J, Lafleur M V M and Sminia P: Radiosensitizing potential of the selective cyclooygenase-2 (COX-2) inhibitor meloxicam on human glioma cells. J Neurooncol 85: 25-31, 2007).

[2] = test system: overall methylation of DNA; assay: Overall methylation of DNA with antibody against 5-methyl-cytosine; format: cell-based, human; settings: A549, 5 μM, 48 hr exposure
Method: DNMT1 protein expression was measured by Western Blotting after exposure to RX-3117 for 24 or 48 hr. DNMT1 RNA expression was measured by real-time PCR after 24 and 48 hr exposure to RX-3117. DNMT enzyme activity was measured in isolated nuclei after exposure 1 μM RX-3117 or 5 μM aza-CdR using a DNA methyltransferase assay kit provided by EpiGentek using the ability of a CpG dinding domain to bind to methylated DNA. In A549 cells the effect of 5 μM RX-3117 on overall methylation was measured with a specific antibody against 5-methyl-cytosine. Bands on Western blots were visualized using appropriate InfraRedDye using an Odyssey InfraRed imager.

A549 = settings: as reported in Peters et al. 2013; cited from earlier work
[3] = Open-label dose-ranging study: pharmacokinetics, safety and tolerability of oral doses; format: in vivo, human; settings: for AUC(0-t): AUC0-24
Method: In an open-label, dose-ranging study, the pharmacokinetics (PK) of RX-3117 at various oral doses was evaluated. Subjects with advanced malignant tumors were administered capsules containing RX-3117 at daily doses of 30 mg (N=1), 60 mg (N=1), 100 mg (N=3), 150 mg (N=3), 200 mg (N=3), 500 mg (N=3), 1000 mg (N=3), 1500 mg (N=4), and 2000 mg (N=5 to date) 3 times a week (TIWK) for 3 weeks with 1 week off during each 4 week cycle. Based on the continued safety profile, and to enhance weekly RX-3117 exposure, more frequent dosing was also implemented. In addition to the TIWK dosing scheme discussed above, subjects also received 500 mg and 700 mg 5 times a week, and 500 mg for 7 times a week for 3 weeks with 1 week off during each 4 week cycle. Dose escalation began with an accelerated design treating 1 subject per dose (Simon et al., J Natl. Cancer Inst., 89(15):1138-47 (1997) followed by a standard 3+3 design using a modified Fibonacci sequence after the occurrence of a single related Grade 2 or greater adverse event. Table 3 summarizes the dosing schedule.
The efficacy, safety and tolerability of RX-3117 at various doses and frequencies were evaluated (see Example 4, above). Subjects with advanced malignant tumors were administered capsules containing RX-3117 at various doses, from TIWK to 7 times per week for 3 weeks with 1 week off during each 4-week cycle. Dose escalation begins with an accelerated design treating 1 subject per dose (Simon et al., J. Natl. Cancer Inst., 89(15):1138-47 (1997) followed by a standard 3+3 design using a modified Fibonacci sequence after the occurrence of a single related Grade 2 or greater adverse event. Table 4 (above) summarizes the dosing schedule.

## Nc1ccn([C@@H]2C(F)=C(CO)[C@@H](O)[C@H]2O)c(=O)n1 [RX-3117, 4-amino-1-((1S,4R,5S)-2-fluoro-4,5-dihydroxy-3-hydroxymethyl-cyclopent-2-enyl)-1H-pyrimidin-2-one]
[1]
  dose modifying factors: 1.4-1.8
[2]
  decrease of overall methylation of DNA: 25%
A549
  IC50: 8.3 µM
[3]; 5 days per week, three weeks with 1 week off per 4-week cycle
  maximum tolerated dose (MTD): 700 mg daily
[3]; Phase I clinical study, as stated in Example 7
  maximal tolerated dose: higher than 2,000 mg/day
[3]; human, in vivo
  apparent terminal T1/2, mean values: 12.3 to 20.2 h
  dose limiting toxicities: Grade 3 anemia, thrombocytopenia
  share of AUC0-t (0-24 hours) observed in the first 8 hours: about half
  share of AUC observed by 24 hours: over 80%
[3]; human, in vivo, apparent terminal T1/2, mean values
  half-life: 11.6 to 16.7 h
[3]; human, in vivo, po, 30 mg, Tmax
  Tmax: 2 h
[3]; human, in vivo, po, 60 mg
  AUC0-24: 1164 ng·h/mL
  Cmax: 139 ng/mL
  T1/2: 16.2 h
  AUC(0-t): 1570 ng·h/mL
[3]; human, in vivo, po, 60 mg, Cmax
  Cmax: 113 ng/mL
[3]; human, in vivo, po, 60 mg, T1/2
  half-life: 15.7 h
[3]; human, in vivo, po, 60 mg, Tmax
  Tmax: 4 h
[3]; human, in vivo, po, 100 mg
  AUC0-24: 2714 ng·h/mL
  Cmax: 357 ng/mL
  T1/2: 15.4 h
  AUC(0-t): 3290 ng·h/mL
[3]; human, in vivo, po, 100 mg, Cmax
  Cmax: 460 ng/mL
[3]; human, in vivo, po, 100 mg, T1/2
  half-life: 20.2 h
[3]; human, in vivo, po, 100 mg, Tmax
  Tmax: 2 h
[3]; human, in vivo, po, 150 mg
  AUC0-24: 2437 ng·h/mL
  Cmax: 360 ng/mL
  T1/2: 15.1 h
  AUC(0-t): 3550 ng·h/mL
[3]; human, in vivo, po, 150 mg, Cmax
  Cmax: 511 ng/mL
[3]; human, in vivo, po, 150 mg, T1/2
  half-life: 13.9 h
[3]; human, in vivo, po, 150 mg, Tmax
  Tmax: 3 h
[3]; human, in vivo, po, 200 mg
  AUC0-24: 4574 ng·h/mL
  Cmax: 643 ng/mL
  T1/2: 16.2 h
  AUC(0-t): 4720 ng·h/mL
[3]; human, in vivo, po, 200 mg, Cmax
  Cmax: 637 ng/mL
[3]; human, in vivo, po, 200 mg, T1/2
  half-life: 13.3 h
[3]; human, in vivo, po, 200 mg, Tmax
  Tmax: 2 h
[3]; human, in vivo, po, 500 mg
  Tmax: 2.5 h
  AUC(0-t): 7920 ng·h/mL
[3]; human, in vivo, po, 500 mg, Cmax
  Cmax: 1100 ng/mL
[3]; human, in vivo, po, 500 mg, Tmax
  Tmax: 2 h
[3]; human, in vivo, po, 700 mg
  AUC0-24: 6321 ng·h/mL
  Cmax: 674 ng/mL
  T1/2: 11.2 h
  AUC(0-t): 8660 ng·h/mL
[3]; human, in vivo, po, 700 mg, Cmax
  Cmax: 989 ng/mL
[3]; human, in vivo, po, 700 mg, T1/2
  half-life: 9.05 h
[3]; human, in vivo, po, 700 mg, Tmax
  Tmax: 3 h
[3]; human, in vivo, po, 1000 mg
  AUC0-24: 9753 ng·h/mL
  Cmax: 1210 ng/mL
  T1/2: 14.9 h
  AUC(0-t): 12200 ng·h/mL
[3]; human, in vivo, po, 1000 mg, Cmax
  Cmax: 1640 ng/mL
[3]; human, in vivo, po, 1000 mg, T1/2
  half-life: 11.6 h
[3]; human, in vivo, po, 1000 mg, Tmax
  Tmax: 2 h
[3]; human, in vivo, po, 1500 mg
  Cmax: 883 ng/mL
  T1/2: 13.8 h
[3]; human, in vivo, po, 1500 mg, Cmax
  Cmax: 1620 ng/mL
[3]; human, in vivo, po, 1500 mg, T1/2
  half-life: 11.8 h
[3]; human, in vivo, po, 1500 mg, Tmax
  Tmax: 3 h
[3]; human, in vivo, po, 2000 mg
  AUC0-24: 17403 ng·h/mL
  Cmax: 1703 ng/mL
  T1/2: 12.1 h
  AUC(0-t): 17000 ng·h/mL
[3]; human, in vivo, po, 2000 mg, Cmax
  Cmax: 1860 ng/mL
[3]; human, in vivo, po, 2000 mg, T1/2
  half-life: 13.3 h
[3]; human, in vivo, po, 2000 mg, Tmax
  Tmax: 3 h
[3]; human, in vivo, po, median Tmax
  Tmax: 2 to 3 h
[3]; in vivo
  accumulation: generally minimal
  most frequent related adverse events: moderate to severe anemia, mild to moderate fatigue and nausea, mild diarrhea, vomiting, and anorexia
  most frequently observed adverse events: mild to moderate fatigue and nausea, mild diarrhea, mild vomiting, mild anorexia and moderate dehydration
